Experimental data: US12590065B2, “Levorphanol prodrugs and processes for making and using them” (Zevra Therapeutics, Inc., priority 2017, dated 2026)

Test: stability of the deprotected derivative in aqueous solution
Assay type: physicochemical
Details: observed after Boc deprotection with 4N HCl in dioxane
Protocol: A solution of 38 in 4N HCl in dioxane (5 mL) was stirred at room temperature for 2 hours. Solvent was evaporated under reduced pressure, the residue was co-evaporated with IPAc and dried to give 40 in quantitative yield. The deprotected derivative 40 was not stable in aqueous solution. Compound 40 was converted to the acetyl derivative 42.

Structure (SMILES): CC(C)[C@H](N)C(=O)OCOC(=O)Oc1ccc2c(c1)[C@@]13CCCC[C@H]1[C@@H](C2)N(C)CC3 [Compound 40, 3-(Val-OCH2OC(O))-Levorphanol]
- stability in aqueous solution: not stable
